Laboratory results reported in PubChem BioAssay AID248 (DTP/NCI, 2004).
Values joined by “and” are separate entries in the source; they are usually repeats but may differ in a detail not shown here. Identical values can stand only once. Toxic doses and inconclusive results are not listed.

System: L1210 leukemia ip in BDF1 mice, survival T/C
Assay: NCI In Vivo Anticancer Drug Screen. Data for tumor model L1210 Leukemia (intraperitoneal) in B6D2F1 (BDF1) mice
Settings: endpoint: mean survival time, higher = longer survival
Procedure, shortened: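 Ratio derived from survival: compound-dosed mice over vehicle-dosed mice, all bearing a transplantable tumor.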

[1] = dose: 100.0 mg/kg/injection, schedule: Q01DX001 (ip), vehicle: saline
[2] = dose: 200.0 mg/kg/injection, schedule: Q01DX001 (ip), vehicle: saline
[3] = dose: 400.0 mg/kg/injection, schedule: Q01DX001 (ip), vehicle: saline
[4] = dose: 50.0 mg/kg/injection, schedule: Q01DX009 (ip), vehicle: saline
[5] = dose: 100.0 mg/kg/injection, schedule: Q01DX009 (ip), vehicle: saline
[6] = dose: 100.0 mg/kg/injection, schedule: Q04DX003 (ip), vehicle: saline
[7] = dose: 200.0 mg/kg/injection, schedule: Q01DX009 (ip), vehicle: saline

## CCCCCCCCCCCCCCCCC1Cc2ccccc2C1
dose: 50.0 mg/kg/injection, schedule: Q01DX001 (ip), vehicle: saline
  T/C: 98 % of control
[1]
  T/C: 101 % of control
[2]
  T/C: 107 % of control
[3]
  T/C: 101 % of control

## COc1cc(CN(C)C2CCCCC2)cc(OC)c1OC
dose: 6.25 mg/kg/injection, schedule: Q01DX009 (ip), vehicle: saline
  T/C: 103 % of control
dose: 12.5 mg/kg/injection, schedule: Q01DX009 (ip), vehicle: saline
  T/C: 103 % of control
dose: 25.0 mg/kg/injection, schedule: Q01DX009 (ip), vehicle: saline
  T/C: 100 % of control
dose: 25.0 mg/kg/injection, schedule: Q04DX003 (ip), vehicle: saline
  T/C: 97 % of control
[4]
  T/C: 94 % of control
dose: 50.0 mg/kg/injection, schedule: Q04DX003 (ip), vehicle: saline
  T/C: 103 % of control
[5]
  T/C: 90 % of control
[6]
  T/C: 100 % of control

## CCNC(=O)NCCN1CCOCC1
[5]
  T/C: 95 % of control
[7]
  T/C: 98 % of control
dose: 400.0 mg/kg/injection, schedule: Q01DX009 (ip), vehicle: saline
  T/C: 104 % of control

## Nc1nc(N)c2c(Cl)c(CNc3ccc(C(=O)NC(CCCC(=O)O)C(=O)O)cc3)ccc2n1 (centres undefined)
dose: 1.0 mg/kg/injection, schedule: Q01DX009 (ip), vehicle: saline
  T/C: 170 % of control
dose: 2.0 mg/kg/injection, schedule: Q01DX009 (ip), vehicle: saline
  T/C: 150 % of control and 152 % of control
dose: 4.0 mg/kg/injection, schedule: Q01DX009 (ip), vehicle: saline
  T/C: 178 % of control and 206 % of control

## CCCCC(CCCC)=NNc1ccc([N+](=O)[O-])cc1[N+](=O)[O-]
[1]
  T/C: 96 % of control
[2]
  T/C: 102 % of control
[3]
  T/C: 107 % of control

## CC#CC(=O)SCCNC(=O)CC
dose: 25.0 mg/kg/injection, schedule: Q01DX009 (ip), vehicle: saline with Tween-80
  T/C: 104 % of control
dose: 50.0 mg/kg/injection, schedule: Q01DX009 (ip), vehicle: saline with Tween-80
  T/C: 96 % of control
dose: 100.0 mg/kg/injection, schedule: Q04DX003 (ip), vehicle: saline with Tween-80
  T/C: 103 % of control
dose: 200.0 mg/kg/injection, schedule: Q04DX003 (ip), vehicle: saline with Tween-80
  T/C: 91 % of control

## CCCCOC(=O)CC(=O)OC
dose: 100.0 mg/kg/injection, schedule: Q01DX009 (ip), vehicle: acetone
  T/C: 93 % of control
dose: 100.0 mg/kg/injection, schedule: Q04DX003 (ip), vehicle: acetone
  T/C: 100 % of control
dose: 200.0 mg/kg/injection, schedule: Q01DX009 (ip), vehicle: acetone
  T/C: 90 % of control
dose: 200.0 mg/kg/injection, schedule: Q04DX003 (ip), vehicle: acetone
  T/C: 103 % of control
dose: 400.0 mg/kg/injection, schedule: Q01DX009 (ip), vehicle: acetone
  T/C: 93 % of control
dose: 400.0 mg/kg/injection, schedule: Q04DX003 (ip), vehicle: acetone
  T/C: 107 % of control

## Cc1nnc(S(=O)(=O)c2ccc(N=Nc3c(N)nc(N)nc3N)cc2)s1
dose: 100.0 mg/kg/injection, schedule: Q01DX001 (ip), vehicle: carboxymethylcellulose (CMC)
  T/C: 92 % of control
dose: 200.0 mg/kg/injection, schedule: Q01DX001 (ip), vehicle: carboxymethylcellulose (CMC)
  T/C: 97 % of control
dose: 400.0 mg/kg/injection, schedule: Q01DX001 (ip), vehicle: carboxymethylcellulose (CMC)
  T/C: 94 % of control

## CN(C)/C=N/N1CCCCCC1
[6]
  T/C: 98 % of control

## COC(=O)C(=[N+]=[N-])C(F)(F)F
[4]
  T/C: 95 % of control
[5]
  T/C: 102 % of control
[7]
  T/C: 102 % of control

## C=C1CCCC(O)CCC1
dose: 75.0 mg/kg/injection, schedule: Q01DX001 (ip), vehicle: other
  T/C: 102 % of control
dose: 150.0 mg/kg/injection, schedule: Q01DX001 (ip), vehicle: other
  T/C: 98 % of control
dose: 300.0 mg/kg/injection, schedule: Q01DX001 (ip), vehicle: other
  T/C: 96 % of control

## O=C(CCl)OCCCl
dose: 25.0 mg/kg/injection, schedule: Q04DX002 (ip), vehicle: saline with Tween-80
  T/C: 95 % of control
dose: 50.0 mg/kg/injection, schedule: Q04DX002 (ip), vehicle: saline with Tween-80
  T/C: 103 % of control
dose: 100.0 mg/kg/injection, schedule: Q04DX002 (ip), vehicle: saline with Tween-80
  T/C: 93 % of control and 95 % of control

## O=C(O)c1cccc(C#Cc2ccccc2)c1
dose: 100.0 mg/kg/injection, schedule: Q01DX001 (ip), vehicle: Klucel (hydroxypropylcellulose) (HPC)
  T/C: 97 % of control
dose: 200.0 mg/kg/injection, schedule: Q01DX001 (ip), vehicle: Klucel (hydroxypropylcellulose) (HPC)
  T/C: 103 % of control

## N#CN(Cc1ccc(Cl)cc1Cl)C(=O)OCOc1ccc(Cl)cc1
dose: 100.0 mg/kg/injection, schedule: Q01DX009 (ip), vehicle: saline with Tween-80
  T/C: 91 % of control
dose: 200.0 mg/kg/injection, schedule: Q01DX009 (ip), vehicle: saline with Tween-80
  T/C: 96 % of control
dose: 400.0 mg/kg/injection, schedule: Q01DX009 (ip), vehicle: saline with Tween-80
  T/C: 107 % of control
